# Target: T1, Tyrosine-protein phosphatase non-receptor type 11 (Homo sapiens, UniProt Q06124)
# T1 sequence (Q06124 whole entry): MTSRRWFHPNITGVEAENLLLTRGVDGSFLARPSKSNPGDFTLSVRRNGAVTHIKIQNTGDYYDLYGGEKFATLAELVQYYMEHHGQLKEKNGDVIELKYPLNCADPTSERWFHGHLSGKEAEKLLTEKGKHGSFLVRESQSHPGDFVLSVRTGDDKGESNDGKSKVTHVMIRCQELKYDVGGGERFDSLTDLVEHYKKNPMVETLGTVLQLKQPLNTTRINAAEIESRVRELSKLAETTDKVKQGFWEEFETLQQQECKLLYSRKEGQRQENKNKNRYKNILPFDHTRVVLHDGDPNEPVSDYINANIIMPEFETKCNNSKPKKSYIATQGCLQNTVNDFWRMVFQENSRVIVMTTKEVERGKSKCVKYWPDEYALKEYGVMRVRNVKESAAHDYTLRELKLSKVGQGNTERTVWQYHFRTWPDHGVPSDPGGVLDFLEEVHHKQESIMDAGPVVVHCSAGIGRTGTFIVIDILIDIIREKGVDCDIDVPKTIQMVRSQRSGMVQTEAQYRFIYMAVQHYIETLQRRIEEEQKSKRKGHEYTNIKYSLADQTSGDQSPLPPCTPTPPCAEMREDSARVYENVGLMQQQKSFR
# Assay: At the basal state, SHP2 is auto-inhibited and access of substrates to the catalytic site is blocked by the […] interactions between the SH2 domains and the PTP domain. When bis-tyrosyl-phosphorylated peptides bind to SH2 domain of SHP2, the PTP domain becomes available for substrate recognition and reaction catalysis and SHP2 is allosterically activated. SHP2 catalytic activity can be measured using a fluorogenic artificial substrate DiFMUP.The phosphatase reactions were carried out at room temperature in 384-well black polystyrene plates (Greiner Bio-One, Cat #784076) using assay buffers containing 60 mM HEPES, pH 7.2, 75 mM NaCl, 75 mM KCl, 1 mM EDTA, 0.05% P-20, and 5 mM DTT.0.33 nM of […] was co-incubated with of 0.5 μM of bisphos-IRS 1 peptide (sequence: H2N-LN(pY)IDLDLV(dPEG8)LST(pY)ASINFQK-amide) and various concentrations of compounds for 30-60 min at room temperature. Then the reaction was initiated by addition of the surrogate substrate DiFMUP (Invitrogen, Cat #D6567, 100 uM final).The real-time conversion of DiFMUP to DiFMU (6,8-difluoro-7-hydroxyl-4-methyl-coumarin) was measured every 5 min for 30 min using a microplate reader (CLARIOstar, BMG Labtech) with excitation and emission wavelengths of 340 nm and 450 nm, respectively. Initial reaction rates were determined by linear fitting of the data and the inhibitor dose response curves were analyzed using normalized IC50 regression curve fitting with control based normalization.
row,IC50,SMILES
1,0.9 nM,C[C@@H]1OCC2(CCN(c3ncc(Sc4ccnc(N)c4Cl)nc3CO)CC2)[C@@H]1N
2,4.8 nM,C[C@@H]1OCC2(CCN(c3ncc(Sc4cc5[nH]c6c(c5nc4Cl)CCCC6O)nc3CO)CC2)[C@@H]1N (stereo partly specified)
3,3.5 nM,C[C@@H]1OCC2(CCN(c3ncc(Sc4cc5[nH]c6c(c5nc4Cl)CC(O)CC6)nc3CO)CC2)[C@@H]1N (stereo partly specified)
4,3 nM,C[C@@H]1OCC2(CCN(c3ncc(Sc4cc(N)nc(Cl)c4Cl)nc3[S+](C)[O-])CC2)[C@@H]1N (stereo partly specified)
5,5.5 nM,COC1CCc2[nH]c3cc(Sc4cnc(N5CCC6(CC5)CO[C@@H](C)[C@H]6N)c(CO)n4)c(Cl)nc3c2C1 (stereo partly specified)

# Second part, the compound before the results:
row,SMILES,IC50
1,C[C@@H]1OCC2(CCN(c3ncc(Sc4ccnc(F)c4Cl)nc3[S+](C)[O-])CC2)[C@@H]1N (stereo partly specified),21 nM
2,C[C@@H]1OCC2(CCN(c3ncc(Sc4ccnc(N)c4Cl)nc3[S+](C)[O-])CC2)[C@@H]1N (stereo partly specified),13 nM
3,C[C@@H]1OCC2(CCN(c3ncc(Sc4ccnc(Cl)c4Cl)nc3[S+](C)[O-])CC2)[C@@H]1N (stereo partly specified),6 nM
4,C[C@@H]1OCC2(CCN(c3ncc(Sc4ccnc(N)c4Cl)nc3Cl)CC2)[C@@H]1N,12 nM
5,C[C@@H]1OCC2(CCN(c3ncc(Sc4ccnc(N5CCCC5)c4Cl)nc3[S+](C)[O-])CC2)[C@@H]1N (stereo partly specified),13 nM
6,C[C@@H]1OCC2(CCN(c3ncc(Sc4cccnc4C(F)(F)F)nc3[S+](C)[O-])CC2)[C@@H]1N (stereo partly specified),85 nM
7,C[C@@H]1OCC2(CCN(c3ncc(Sc4ccnc(N)c4Cl)nc3O)CC2)[C@@H]1N,13 nM
8,Nc1nccc(Sc2cnc(N3CCC4(CC3)Cc3ncccc3[C@H]4N)c(CO)n2)c1Cl,0.6 nM
9,Nc1nccc(Sc2cnc(N3CCC4(CC3)CCC3(CC3)C4N)c(CO)n2)c1Cl (stereo unspecified),3 nM
10,CN1C(=O)CCC12CC(N)C1(CCN(c3ncc(Sc4ccnc(N)c4Cl)nc3CO)CC1)C2 (stereo unspecified),269 nM
11,COc1nccc(Sc2cnc(N3CCC4(CC3)CO[C@@H](C)[C@H]4N)c([S+](C)[O-])n2)c1Cl (stereo partly specified),18 nM
